Legend:
[1] = target: T1, COX-1 (cyclooxygenase enzyme-1) (Ovis aries, UniProt P05979); test: biochemical; design: In vitro cyclooxygenase (COX-1 and COX-2) enzyme inhibition assay, percent inhibition; settings: read-out: % inhibition
T1 construct: gene PTGS1
T1 sequence (P05979 25-600): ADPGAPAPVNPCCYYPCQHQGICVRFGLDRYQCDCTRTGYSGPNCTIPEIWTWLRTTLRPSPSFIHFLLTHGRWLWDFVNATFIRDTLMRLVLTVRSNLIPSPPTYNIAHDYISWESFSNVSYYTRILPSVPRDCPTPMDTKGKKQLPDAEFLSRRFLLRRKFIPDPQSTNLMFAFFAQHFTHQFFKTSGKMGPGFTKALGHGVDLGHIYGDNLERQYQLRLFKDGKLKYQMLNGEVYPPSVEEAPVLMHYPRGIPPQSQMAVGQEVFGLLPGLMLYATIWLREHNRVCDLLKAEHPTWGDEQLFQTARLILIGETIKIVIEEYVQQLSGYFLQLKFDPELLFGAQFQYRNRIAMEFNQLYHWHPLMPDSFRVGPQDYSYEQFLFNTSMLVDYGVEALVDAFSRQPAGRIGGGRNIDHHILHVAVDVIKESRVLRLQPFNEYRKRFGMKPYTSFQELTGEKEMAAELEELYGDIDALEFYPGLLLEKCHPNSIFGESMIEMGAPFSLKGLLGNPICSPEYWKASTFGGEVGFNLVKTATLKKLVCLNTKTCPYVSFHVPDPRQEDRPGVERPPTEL
Procedure: (see S1 File for experimental details). To evaluate the health-beneficial activity of the sea lamprey compounds, we included all isolates of sea lamprey extract for the evaluation of in vitro antiinflammatory and antioxidant activities. […] (S1 File). […] Antiinflammatory activities of arginine, tyrosine, tryptophan, asparagine and inosine were assayed at 50 μg/mL concentration.

[2] = target: T2, COX-2 (cyclooxygenase enzyme-2) (Homo sapiens, UniProt P35354); test: biochemical; design: In vitro cyclooxygenase (COX-1 and COX-2) enzyme inhibition assay, percent inhibition; settings: read-out: % inhibition
T2 construct: gene PTGS2
T2 sequence (P35354 18-604): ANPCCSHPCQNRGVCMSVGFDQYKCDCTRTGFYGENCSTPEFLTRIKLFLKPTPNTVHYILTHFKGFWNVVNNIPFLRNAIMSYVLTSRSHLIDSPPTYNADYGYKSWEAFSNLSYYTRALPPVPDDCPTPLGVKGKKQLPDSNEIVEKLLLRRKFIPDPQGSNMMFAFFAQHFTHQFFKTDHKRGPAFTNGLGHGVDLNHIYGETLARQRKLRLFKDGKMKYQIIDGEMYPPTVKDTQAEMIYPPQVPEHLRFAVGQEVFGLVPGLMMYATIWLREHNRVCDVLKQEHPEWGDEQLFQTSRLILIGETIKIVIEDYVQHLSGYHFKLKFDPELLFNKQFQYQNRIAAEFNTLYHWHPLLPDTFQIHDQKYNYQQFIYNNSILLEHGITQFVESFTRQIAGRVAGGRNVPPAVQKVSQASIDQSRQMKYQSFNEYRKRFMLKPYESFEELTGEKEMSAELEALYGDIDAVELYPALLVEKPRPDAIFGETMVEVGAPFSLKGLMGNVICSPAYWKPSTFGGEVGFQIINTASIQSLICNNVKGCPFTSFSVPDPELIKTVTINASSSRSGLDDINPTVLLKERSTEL

Structure (SMILES)	inhibition at 25 µg/mL [1] [%]	inhibition at 25 µg/mL [2] [%]	inhibition at 108 µg/mL [2] [%]
O=C(O)C(O)Cc1ccccc1 (stereo not drawn) [3-Phenyllactic acid]	4.42 ± 0.3	11.5 ± 1.6	–
N=C(N)NCCC[C@H](N)C(=O)O [Arginine]	29.7 ± 1.3	11.9 ± 1.9	–
N[C@@H](CC(=O)O)C(=O)O [Aspartic acid]	11.8 ± 0.6	4.23 ± 0.6	–
CC(C)CCC[C@@H](C)[C@H]1CC[C@H]2[C@@H]3CC=C4C[C@@H](O)CC[C@]4(C)[C@H]3CC[C@]12C [Cholesterol]	2.92 ± 1.4	4.94 ± 2.4	–
CCCCCCCCCCCCCCCC(=O)O[C@H]1CC[C@@]2(C)C(=CC[C@H]3[C@@H]4CC[C@H]([C@H](C)CCCC(C)C)[C@@]4(C)CC[C@@H]32)C1 [Cholesteryl palmitate^#]	37.7 ± 2.4	17.7 ± 2.9	–
CN(CC(=O)O)C(=N)N [Creatine]	13.3 ± 2.7	9.65 ± 1.3	–
O=c1[nH]cnc2c1ncn2[C@@H]1O[C@H](CO)[C@@H](O)[C@H]1O [Inosine]	35.8 ± 0.5	26.1 ± 0.9	–
CSCC[C@H](N)C(=O)O [Methionine]	15.2 ± 1.5	4.36 ± 0.4	–
O=C(O)[C@@H]1CCCN1 [Proline]	21.6 ± 2.4	7.14 ± 1.1	–
NCCCCN [Putrescine]	16.9 ± 0.2	10.3 ± 1.4	–
CC(=O)C(=O)O [Pyruvic acid]	9.48 ± 2.9	7.8 ± 0.8	–
N[C@@H](CO)C(=O)O [Serine]	6.25 ± 2.4	2.91 ± 0.3	–
NCCCNCCCCNCCCN [Spermine]	17.5 ± 1.9	3.03 ± 0.5	–
N[C@@H](Cc1ccc(O)cc1)C(=O)O [Tyrosine]	37.2 ± 1.1	21.8 ± 2.4	–
CC(=O)Oc1ccccc1C(=O)O [compound 1, Aspirin]	–	–	29.8 ± 0.9
CC(C)C(=O)C(=O)O [α-Ketoisovaleric acid]	17.1 ± 2.1	10.5 ± 1.8	–

More lines, now with the values ahead:

inhibition at 25 µg/mL [1] [%]	inhibition at 25 µg/mL [2] [%]	inhibition at 108 µg/mL [2] [%]	Structure (SMILES)
11.7 ± 1.8	10 ± 1.4	–	Nc1[nH]cnc2ncnc1-2 [Adenine]
16.6 ± 1.1	14.7 ± 0.8	–	Nc1ncnc2c1ncn2[C@@H]1O[C@H](CO)[C@@H](O)[C@H]1O [Adenosine]
26.8 ± 2.3	17.3 ± 0.9	–	NC(=O)C[C@H](N)C(=O)O [Asparagine]
45.9 ± 0.5	31.1 ± 2.8	–	CCCCCCCC/C=C\CCCCCCCC(=O)O[C@H]1CC[C@@]2(C)C(=CC[C@H]3[C@@H]4CC[C@H]([C@H](C)CCCC(C)C)[C@@]4(C)CC[C@@H]32)C1 [Cholesteryl oleate^#]
12.9 ± 3.5	9.65 ± 1.3	–	N[C@@H](CS)C(=O)O [Cysteine]
32.2 ± 1.9	13.8 ± 2.4	–	N[C@@H](CCC(=O)O)C(=O)O [Glutamic acid]
12.9 ± 1.4	7.01 ± 0.9	–	NCC(=O)O [Glycine]
10.9 ± 1.4	5.82 ± 0.4	–	O=c1[nH]cnc2nc[nH]c12 [Hypoxanthine]
23.3 ± 0.6	9.92 ± 0.5	–	CC[C@H](C)[C@H](N)C(=O)O [Isoleucine]
18.2 ± 1.3	4.89 ± 3.9	–	CC(C)C[C@H](N)C(=O)O [Leucine]
15.6 ± 1.7	11.5 ± 1.3	–	N[C@@H](Cc1ccccc1)C(=O)O [Phenylalanine]
19.4 ± 1.4	5.82 ± 2.9	–	C[C@@H](O)[C@H](N)C(=O)O [Threonine]
37.6 ± 0.8	19.6 ± 1.8	–	N[C@@H](Cc1c[nH]c2ccccc12)C(=O)O [Tryptophan]
21.6 ± 0.9	8.33 ± 1.3	–	CC(C)[C@H](N)C(=O)O [Valine]
12.7 ± 3.8	4.37 ± 0.6	–	O=c1[nH]c(=O)c2nc[nH]c2[nH]1 [Xanthine]
5.24 ± 0.3	9.65 ± 0.4	–	CCC(=O)C(=O)O [α-Ketobutyric acid]

Reference: paper PMC8565778, “Evaluation of health benefits of sea lamprey (Petromyzon marinus) isolates using in vitro antiinflammatory and antioxidant assays” (PLoS ONE, 2021)
